What was measured:
NUAK2 (h) = target: T1, NUAK2 (h) (Homo sapiens, UniProt Q9H093); assay: NUAK2 enzymatic assay (radiometric, Eurofins); format: biochemical; details: for AUR-A (IC50, nM)/NUAK2 (IC50, nM): NUAK2 selectivity over Aurora-A, ratio of IC50s; for IC50: radiometric, full-length recombinant enzyme
T1 construct: This assay was done radiometrically using full-length, recombinant enzyme; purchased Eurofins
T1 sequence (Q9H093 1-628): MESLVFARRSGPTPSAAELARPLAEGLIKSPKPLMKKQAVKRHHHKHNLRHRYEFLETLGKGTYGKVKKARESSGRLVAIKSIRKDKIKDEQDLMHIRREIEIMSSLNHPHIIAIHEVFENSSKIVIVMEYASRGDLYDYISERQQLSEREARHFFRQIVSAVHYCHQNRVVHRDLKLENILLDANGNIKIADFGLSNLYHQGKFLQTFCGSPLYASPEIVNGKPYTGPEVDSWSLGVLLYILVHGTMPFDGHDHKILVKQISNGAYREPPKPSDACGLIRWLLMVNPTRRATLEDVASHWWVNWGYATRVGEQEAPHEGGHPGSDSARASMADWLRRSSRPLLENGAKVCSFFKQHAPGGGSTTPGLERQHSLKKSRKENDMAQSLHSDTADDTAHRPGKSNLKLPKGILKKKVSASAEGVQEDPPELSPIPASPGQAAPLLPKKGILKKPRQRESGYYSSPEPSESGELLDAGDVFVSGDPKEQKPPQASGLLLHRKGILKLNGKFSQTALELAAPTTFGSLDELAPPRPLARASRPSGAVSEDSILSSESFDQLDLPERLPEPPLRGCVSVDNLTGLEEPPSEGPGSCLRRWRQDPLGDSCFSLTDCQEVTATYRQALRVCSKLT
Outline: (§1)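 Radiometric assay with full-length recombinant NUAK2 in 8 mM MOPS pH 7.0, 0.2 mM EDTA, 10 mM magnesium acetate, 300 μM peptide substrate and [33P]-ATP, 40 min at room temperature. Phosphoric acid stop, filter capture, scintillation counting. Aurora A and NUAK1 used as counter screens.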

NUAK1 = target: T2, NUAK1 (Homo sapiens, UniProt O60285); assay: NUAK1 counter screen; format: biochemical
T2 sequence (O60285 1-661): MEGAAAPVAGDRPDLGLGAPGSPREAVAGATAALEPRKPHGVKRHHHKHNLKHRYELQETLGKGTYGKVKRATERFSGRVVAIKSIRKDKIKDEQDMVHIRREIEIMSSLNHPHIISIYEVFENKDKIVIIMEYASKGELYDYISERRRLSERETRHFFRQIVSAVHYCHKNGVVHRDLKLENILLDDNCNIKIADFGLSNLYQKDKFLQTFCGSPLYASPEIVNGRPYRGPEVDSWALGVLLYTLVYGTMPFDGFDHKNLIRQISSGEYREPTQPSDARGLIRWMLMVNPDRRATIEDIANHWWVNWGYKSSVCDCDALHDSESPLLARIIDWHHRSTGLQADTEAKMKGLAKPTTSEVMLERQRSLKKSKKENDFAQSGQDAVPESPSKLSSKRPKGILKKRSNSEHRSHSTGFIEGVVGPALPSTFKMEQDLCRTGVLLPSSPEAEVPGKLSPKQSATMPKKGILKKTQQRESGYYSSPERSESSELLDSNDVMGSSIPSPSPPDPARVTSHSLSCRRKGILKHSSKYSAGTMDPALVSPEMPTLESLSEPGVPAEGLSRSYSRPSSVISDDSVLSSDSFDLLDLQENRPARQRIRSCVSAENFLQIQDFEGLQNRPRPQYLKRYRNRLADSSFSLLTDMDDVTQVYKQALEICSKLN
Outline: as §1

Aurora A = target: T3, Aurora A (Homo sapiens, UniProt O14965); assay: Aurora A counter screen; format: biochemical; details: read-out: AUR-A (IC50)
T3 sequence (O14965 1-403): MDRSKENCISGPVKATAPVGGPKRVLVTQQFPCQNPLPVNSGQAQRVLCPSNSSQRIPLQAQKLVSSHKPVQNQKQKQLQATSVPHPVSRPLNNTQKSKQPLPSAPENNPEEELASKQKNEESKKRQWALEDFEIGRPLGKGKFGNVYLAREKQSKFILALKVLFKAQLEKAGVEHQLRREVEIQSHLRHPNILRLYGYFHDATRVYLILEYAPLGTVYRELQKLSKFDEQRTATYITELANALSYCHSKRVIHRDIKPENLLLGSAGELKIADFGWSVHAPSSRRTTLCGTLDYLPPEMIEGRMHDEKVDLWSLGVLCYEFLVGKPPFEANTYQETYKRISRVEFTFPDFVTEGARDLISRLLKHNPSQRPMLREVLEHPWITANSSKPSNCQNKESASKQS
Outline: as §1

MDA-MB-231 cells = assay: Tumor cell growth inhibition assay (ATPlite); format: cell-based; details: Homo sapiens, 120 h, MDA-MB-231 breast tumor cell line, 5 days
Description: MDA-MB-231 cells were seeded into a 384-well plate at 1,000 cells/well in 50 μl medium (Alpha-MEM containing 10% FBS, […] Normocin, Invivogen and […] Gentamycin, Invitrogen). Plates were then incubated overnight for the cells to attach. An HP D300 digital dispenser was used to dose cells with DMSO or test compounds across a 16-point range of concentrations (high dose of 10 uM to low dose of 5 nM). Plates were incubated in a humidified 5% CO2 incubator at 37° C. After 5 days, plates were removed from the incubator and equilibrated to room temperature. An equal volume of ATPlite assay reagent was then added to each well, and samples processed according to manufacturer's instructions (Perkin Elmer). Luminescent signals were then measured using an Envision plate reader equipped with a US-Luminescence detector.

[1] = test system: YAP/TAZ nuclear localization in several cancer cell lines; details: IF confocal microscopy; cited from earlier work
[2] = test system: YAP/TAZ transcriptional function in several cancer cell lines; details: PCR; cited from earlier work

Row | SMILES | AUR-A (IC50, nM)/NUAK2 (IC50, nM) (NUAK2 (h)) | IC50 (NUAK2 (h)) [nM] | IC50 (NUAK1) [nM] | IC50 (Aurora A) [nM] | IC50 (MDA-MB-231 cells) [nM] | YAP/TAZ nuclear localization [1] | YAP/TAZ transcriptional function (target gene expression) [2]
1 | CN1CCN(c2ccc(Nc3ncc(C#N)c(Nc4ccsc4C(N)=O)n3)c(OC(F)F)c2)CC1 [Compound I-38, 3-((5-cyano-2-((2-(difluoromethoxy)-4-(4-methylpiperazin-1-yl)phenyl)amino)pyrimidin-4-yl)amino)thiophene-2-carboxamide] | – | 0.1 to 10 | 11 to 100 | 101 to 1000 | 120 | – | –
2 | CCC(=O)Nc1cccc(Oc2nc(Nc3ccc(N4CCN(C)CC4)cc3OC)ncc2Cl)c1 [WZ4003] | – | – | – | – | – | a block of YAP/TAZ nuclear localization | attenuates transcriptional function
3 | CN1CCN(C2CCN(c3ccc(Nc4ncc(Cl)c(Nc5ccsc5C(N)=O)n4)c(OC(F)F)c3)CC2)CC1 [Compound I-41, 3-((5-chloro-2-((2-(difluoromethoxy)-4-(4-(4-methylpiperazin-1-yl)piperidin-1-yl)phenyl)amino)pyrimidin-4-yl)amino)thiophene-2-carboxamide] | 30 | 11 to 100 | 11 to 100 | 101 to 1000 | 202 | – | –
4 | CN1C2CCC1CN(c1ccc(Nc3ncc(Cl)c(Nc4ccsc4C(N)=O)n3)c(OC(F)F)c1)C2 [Compound I-30, 3-((5-chloro-2-((2-(difluoromethoxy)-4-(8-methyl-3,8-diazabicyclo[3.2.1]octan-3-yl)phenyl)amino)pyrimidin-4-yl)amino)thiophene-2-carboxamide] | – | 0.1 to 10 | 11 to 100 | 101 to 1000 | 144 | – | –
5 | CN1CCN(c2ccc(Nc3ncc4cc(C#N)c(=O)n(C5CCCC5)c4n3)cc2)CC1 [ON123300] | – | – | – | – | – | a block of YAP/TAZ nuclear localization | attenuates transcriptional function
6 | CN1CCN(C2CCN(c3ccc(Nc4ncc(C(F)(F)F)c(Nc5ccsc5C(N)=O)n4)c(OC(F)F)c3)CC2)CC1 [Compound I-52, 3-((2-((2-(difluoromethoxy)-4-(4-(4-methylpiperazin-1-yl)piperidin-1-yl)phenyl)amino)-5-(trifluoromethyl)pyrimidin-4-yl)amino)thiophene-2-carboxamide] | – | 0.1 to 10 | 0.1 to 10 | 11 to 100 | 142 | – | –
7 | CN1CCN(c2ccc(Nc3ncc(Cl)c(Nc4ccsc4C(N)=O)n3)c(OC(F)F)c2F)CC1 [Compound I-42, 3-((5-chloro-2-((2-(difluoromethoxy)-3-fluoro-4-(4-methylpiperazin-1-yl)phenyl)amino)pyrimidin-4-yl)amino)thiophene-2-carboxamide] | 86 | 11 to 100 | 11 to 100 | > 1000 | 653 | – | –
8 | NC(=O)c1sccc1Nc1nc(Nc2ccc(N3CCN4CCOC[C@H]4C3)cc2OC(F)F)ncc1Cl [Compound I-45, (R)-3-((5-chloro-2-((2-(difluoromethoxy)-4-(hexahydropyrazino[2,1-c][1,4]oxazin-8(1H)-yl)phenyl)amino)pyrimidin-4-yl)amino)thiophene-2-carboxamide] | – | 11 to 100 | 11 to 100 | 101 to 1000 | – | – | –

Continued, in another order:

Row | AUR-A (IC50, nM)/NUAK2 (IC50, nM) (NUAK2 (h)) | IC50 (NUAK2 (h)) [nM] | IC50 (NUAK1) [nM] | IC50 (Aurora A) [nM] | IC50 (MDA-MB-231 cells) [nM] | SMILES | YAP/TAZ nuclear localization [1] | YAP/TAZ transcriptional function (target gene expression) [2]
9 | 176 | 0.1 to 10 | 11 to 100 | 101 to 1000 | 858 | CN1CCN(c2ccc(Nc3ncc(Cl)c(N[C@@H]4CCCC[C@H]4C(N)=O)n3)c(OC(F)F)c2)CC1 [Compound I-82, (1R,2R)-2-((5-chloro-2-((2-(difluoromethoxy)-4-(4-methylpiperazin-1-yl)phenyl)amino)pyrimidin-4-yl)amino)cyclohexane-1-carboxamide] | – | –
10 | – | 11 to 100 | 11 to 100 | 101 to 1000 | 96 | CC(C)N1CCN(C2CCN(c3ccc(Nc4ncc(C(F)(F)F)c(Nc5ccsc5C(N)=O)n4)c(OC(F)F)c3)CC2)CC1 [Compound I-78, 3-((2-((2-(difluoromethoxy)-4-(4-(4-isopropylpiperazin-1-yl)piperidin-1-yl)phenyl)amino)-5-(trifluoromethyl)pyrimidin-4-yl)amino)thiophene-2-carboxamide] | – | –
11 | – | 0.1 to 10 | 11 to 100 | 101 to 1000 | 120 | CN1CCCN(C2CCN(c3ccc(Nc4ncc(C(F)(F)F)c(Nc5ccsc5C(N)=O)n4)c(OC(F)F)c3)CC2)CC1 [Compound I-75, 3-((2-((2-(difluoromethoxy)-4-(4-(4-methyl-1,4-diazepan-1-yl)piperidin-1-yl)phenyl)amino)-5-(trifluoromethyl)pyrimidin-4-yl)amino)thiophene-2-carboxamide] | – | –
12 | – | 11 to 100 | 11 to 100 | > 1000 | 932 | CN1CCN(C2CCN(c3ccc(Nc4ncc(Cl)c(N[C@@H]5CCCC[C@H]5C(N)=O)n4)c(OC(F)F)c3)CC2)CC1 [Compound I-87, (1R,2R)-2-((5-chloro-2-((2-(difluoromethoxy)-4-(4-(4-methylpiperazin-1-yl)piperidin-1-yl)phenyl)amino)pyrimidin-4-yl)amino)cyclohexane-1-carboxamide] | – | –
13 | – | 11 to 100 | 11 to 100 | 101 to 1000 | – | CN1CCC2(CC1)CCN(c1ccc(Nc3ncc(Cl)c(Nc4ccsc4C(N)=O)n3)c(OC(F)F)c1)CC2 [Compound I-54, 3-((5-chloro-2-((2-(difluoromethoxy)-4-(9-methyl-3,9-diazaspiro[5.5]undecan-3-yl)phenyl)amino)pyrimidin-4-yl)amino)thiophene-2-carboxamide] | – | –
